From patent US6756362B2, “Methods and compositions based on inhibition of cell invasion and fibrosis by anionic polymers” (priority 1991, dated 2004)

Experiments:
[1] = test system: DRG explants, neuronal and non-neuronal cell migration; assay: Explant outgrowth assay; assay type: cell-based, chick
Protocol: Primary Explant Cultures. Dorsal root ganglia (DRGs) were obtained from E8-E9 chick embryos. The dissection was carried out in CMF-HBSS. The spinal cord was exposed and DRGs were removed and cleaned from surrounding connective tissue. DRGs were plated in DMEM/F12, 10% fetal calf serum containing 50 ng/ml nerve growth factor (NGF). The DRGs were seeded on laminin (LN, Gibco Laboratories) or poly-L-lysine (PLL, Sigma) coated dishes.
The relative outgrowth, compared to outgrowth of untreated controls, was rated as follows: 1: 0-19% of control; 2: 20-39% of control; 3: 40-59% of control; 4: 60-79% of control; 5: 80-100% of control.
The effect of heparin and dextran sulfate on cell migration from explant cultures of chick DRGs was tested. DRGs were plated in culture dishes precoated with a substratum of either PLL or LN and grown in culture medium containing different concentrations of heparin, dextran sulfate or dextran solutions. In the absence of a test compound, within 24-48 hours a halo of neuritic outgrowth and migrating non-neuronal cells, i.e., fibroblasts and Schwann cells, was evident around the ganglia (FIG. 6A). The size of the cellular halo migrating from the DRG explant was reduced when the explant was grown in the presence of 0.4 mg/ml heparin (FIG. 6B). […] In contrast, 0.4 mg/ml dextran had no effect (FIG. 6D). The size of the cellular halo emanating from DRGs grown in the presence of test compounds was evaluated relative to untreated control and rated as described in Section 8.1.3, supra (Table 9).

[2] = test system: PC12 cells; assay: PC12 neurite outgrowth assay; assay type: cell-based; settings: NGF-primed PC12 cells; scored 2 days later
Protocol: Cell lines. Murine 3T3 fibroblast (NIH), rat C6 glioma (Paganetti et al., 1988, J. Cell Biol. 107:2281) and MCG-28 young immortalized mouse astrocyte (a murine neonatal astrocyte line immortalized with SV-40) were grown in medium composed of Dulbecco's modified Eagle medium (DMEM), 10% fetal calf serum (Gibco Laboratories), and penicillin G/streptomycin (100 units/ml, 100 μg/ml respectively, Gibco Laboratories). For the stripe assay, confluent plates were disaggregated with 0.05% trypsin, 0.53 mM EDTA (Gibco Laboratories) and seeded at 200,000 cells/ml (3 ml/plate). For the cell adhesion assays, confluent cultures were disaggregated with 0.03% EDTA and plated in a 96-well microtiter plate at 20,000-100,000 cells per well. PC12 cells, a pheochromocytoma cell line (Green L. A. & Tischler A. S., 1976, Proc. Natl. Acad. Sci. U.S.A. 73:2424), were grown in medium containing Roswell Park Memorial Institute (RPMI) medium 1640 (Gibco Laboratories), 10% horse serum, 5% fetal calf serum (FCS), and penicillin G/streptomycin (100 units/ml, 100 μg/ml respectively, Gibco Laboratories). The cells were disaggregated with 0.03% EDTA and plated in a 96-well microtiter plate at 3,000 cells per well.
PC12 cells were primed with 20 ng/ml NGF for 8 days, collected with 0.03% EDTA in PBS and plated in precoated 96-well microtiter plates at 3,000 cells/well. The microtiter plates were precoated with poly-L-lysine and blocked with adhesion medium (1% BSA in RPMI) for 20 min prior to addition of cells. The cells were grown in adhesion medium supplemented with 20 ng/ml NGF. The cells were allowed to attach for 2 hr prior to the addition of the test compounds (Akeson and Warren, 1986, Exp. Cell Res. 162:347-362).
PC-12 cells primed with NGF were plated in 96-well plates. Test solutions were added to the wells and the cells were scored 2 days later as (+) if neurites of at least two cell bodies diameter in length were present on the majority of the cells, and (−) if no or only short processes were present. […] The compounds tested included GAGs (heparin, dermatan sulfate, chondroitin sulfate A, keratan sulfate and hyaluronic acid), sulfated carbohydrate polymers (dextran sulfate and pentosan polysulfate), and another polyanionic polymer (e.g., alginic acid).

[3] = test system: epidural fibrosis at laminectomy site, Lewis inbred rats; assay: Epidural fibrosis after lumbar laminectomy in rats, gross evaluation; assay type: in vivo, rat; design: TOTAL SCORE / TOTAL SCORE 2 WEEKS: scale not given here; settings: for inhibition of scar formation (in words): versus buffer control; for TOTAL SCORE 2 WEEKS: Table 4, 2 weeks post-implantation; for Bone Growth / Deep Scar / Gelfoam Appearance: score 0-3 per Table 1; for Bone Growth / Deep Scar / Gelfoam Appearance / Superficial Scar: agent-soaked GELFOAM in laminectomy site; for Superficial Scar: score 1-3 per Table 1
Protocol: Epidural fibrosis was investigated after lumbar laminectomy in rats. In this model, a laminectomy was performed at the lumbar 3 and 5 vertebrae and then the test agent was applied to the laminectomy site. Subsequently, the laminectomy sites were examined for fibrosis by gross dissection or by histological analysis.
Laminectomies (described below) were performed at lumbar vertebrae L3 and L5 to provide auto-controls within each animal. Segments of GELFOAM® (Upjohn) soaked with experimental or control solutions were inserted into the laminectomy site. The soared GELFOAM® fragments were prepared and coded 24 hours beforehand. The GELFOAM® segments were soaked in solutions of dextran sulfate in calcium/magnesium-free phosphate buffered saline (CMF-PBS), dextran in CMF-PBS, or CMF-PBS alone. In some laminectomy sites, the GELFOAM® fragments were omitted, in order to serve as sham operations. Subsequently, the evaluation by gross dissection was done without knowledge of which solutions had been placed in which laminectomy site. Thus, the experiments were double-blind.
Lewis inbred rats were anesthetized with 4% chloral hydrate (34 mg/100 g body weight). The dorsal skin was incised and the paraspinal muscles were separated from the spinous processes of lumbar vertebrae L2 through L6. The spinous processes of L3 and L5 were removed with a rongeurs; then the vertebral lamina was removed with a micro-rongeurs creating a rectangular laminectomy defect 4×2 mm in size. After bleeding was stopped, a GELFOAM® segment was placed into the laminectomy site according to a randomized protocol. The overlying paraspinal muscles were closed over the site by suturing the superficial fascia together with resorbable 6-0 PDS II (Ethicon). The skin incision was closed with wound clips.
The animals were kept for two weeks prior to gross evaluation. At that time, the rats were anesthetized with 4% chloral hydrate and the wound was reopened by incising, the skin and separating the paraspinal muscles. The quality and quantity of scar tissue above the laminectomy site, the appearance of the GELFOAM® and the extent of new bone growth was evaluated by visual and tactile observation during sharp dissection. After the gross evaluation was complete, the rats were euthanized by anesthesia overdose.
All gross evaluations were made prior to breaking the treatment code, but the observations have been tabulated and presented below according to treatment group.

[4] = 0.5 μg/ml in culture medium, PLL substratum
[5] = 1 μg/ml in culture medium, PLL substratum
[6] = 1.25 μg/ml in culture medium, LN substratum
[7] = 1.25 μg/ml in culture medium, PLL substratum
[8] = 2 μg/ml in culture medium, PLL substratum
[9] = 10 μg/ml in culture medium, LN substratum
[10] = 10 μg/ml in culture medium, PLL substratum
[11] = 50 μg/ml in culture medium, LN substratum
[12] = 50 μg/ml in culture medium, PLL substratum
[13] = 200 μg/ml in culture medium, LN substratum
[14] = 200 μg/ml in culture medium, PLL substratum
[15] = 400 μg/ml in culture medium, LN substratum
[16] = 400 μg/ml in culture medium, PLL substratum
[17] = 2 μg/ml in culture medium, LN substratum
[18] = Table 2, sum of four criteria, lower = greater inhibition of scar formation, two weeks

Substance	Cellular Migration from DRG Explants, rating relative to untreated control [1, 4]	Cellular Migration from DRG Explants, rating relative to untreated control [1, 5]	Cellular Migration from DRG Explants, rating relative to untreated control [1, 6]	Cellular Migration from DRG Explants, rating relative to untreated control [1, 7]	Cellular Migration from DRG Explants, rating relative to untreated control [1, 8]	Cellular Migration from DRG Explants, rating relative to untreated control [1, 9]	Cellular Migration from DRG Explants, rating relative to untreated control [1, 10]	Cellular Migration from DRG Explants, rating relative to untreated control [1, 11]	Cellular Migration from DRG Explants, rating relative to untreated control [1, 12]	Cellular Migration from DRG Explants, rating relative to untreated control [1, 13]	Cellular Migration from DRG Explants, rating relative to untreated control [1, 14]	Cellular Migration from DRG Explants, rating relative to untreated control [1, 15]	Cellular Migration from DRG Explants, rating relative to untreated control [1, 16]	IC100, minimum concentration causing 100% inhibition of neurite outgrowth [2]	inhibition of scar formation (in words) ([3]; 20 mg/ml)	TOTAL SCORE ([3]; Table 5, agent 20 mg/ml)	Cellular Migration from DRG Explants, rating relative to untreated control [1, 17]	TOTAL SCORE [3, 18]	TOTAL SCORE 2 WEEKS ([3]; 20 mg/ml)	Bone Growth ([3]; two weeks)	further results
Heparin	5 (5 = 80-100% of control)	4 (4 = 60-79%)	5 (5 = 80-100% of control)	2 (2 = 20-39%)	2 (2 = 20-39%)	5 (5 = 80-100% of control)	2 (2 = 20-39%)	5 (5 = 80-100% of control)	2 (2 = 20-39%)	5 (5 = 80-100% of control)	2 (2 = 20-39%)	5 (5 = 80-100% of control)	1 (1 = 0-19%)	2.6e-07 g/mL	marginal improvement	7.3 ± 2.5	–	–	–	–	hemorrhage and hematoma formation at the laminectomy site ([3]; rat, in vivo): caused hemorrhage and hematoma formation
dextran sulfate	5 (5 = 80-100% of control)	3 (3 = 40-59%)	5 (5 = 80-100% of control)	2 (2 = 20-39%)	1 (1 = 0-19%)	1 (1 = 0-19%)	1 (1 = 0-19%)	1 (1 = 0-19%)	1 (1 = 0-19%)	1 (1 = 0-19%)	1 (1 = 0-19%)	1 (1 = 0-19%)	1 (1 = 0-19%)	5.2e-07 g/mL	potent inhibition	1.7 ± 0.9	3 (3 = 40-59%)	1.7 ± 0.9	1.2 ± 0.5	0.1 ± 0.3	TOTAL SCORE ([3]; Table 3 dose response, 0.2 mg/ml): 7.8 ± 1.9; TOTAL SCORE ([3]; Table 3 dose response, 2 mg/ml): 3.0 ± 2.3; TOTAL SCORE ([3]; Table 3 dose response, 20 mg/ml): 1.3 ± 0.5; hemorrhage and hematoma formation at the laminectomy site ([3]; rats, applied at laminectomy site): not seen; Deep Scar ([3]; two weeks): 0.3 ± 0.5; Gelfoam Appearance ([3]; two weeks): 0.1 ± 0.3; Superficial Scar ([3]; two weeks): 1.2 ± 0.4
dextran [reference compound]	–	–	–	–	–	5 (5 = 80-100% of control)	–	5 (5 = 80-100% of control)	5 (5 = 80-100% of control)	5 (5 = 80-100% of control)	5 (5 = 80-100% of control)	5 (5 = 80-100% of control)	5 (5 = 80-100% of control)	>0.001 g/mL	–	8.8 ± 2.4	5 (5 = 80-100% of control)	8.8 ± 2.4	9.5 ± 2.4	1.6 ± 0.9	Deep Scar ([3]; two weeks): 2.3 ± 0.9; Gelfoam Appearance ([3]; two weeks): 2.2 ± 0.8; Superficial Scar ([3]; two weeks): 2.7 ± 0.5
